Experimental data: publication PMC9504029, “Identification and Characterization of Novel Small-Molecule SMOX Inhibitors” (Medical Sciences, 2022)

Tests used:
[1] = system: SH-SY5Y neuroblastoma cells; assay: Cytotoxicity analysis, MTS assay; format: cell-based; conditions: doses below 1 mM
Method: (§1) SH-SY5Y neuroblastoma cells purchased from ATCC (Manassas, VA, USA) were cultured in Dulbecco’s modified Eagle medium (DMEM) without phenol red and supplemented with 10% heat inactivated human AB serum, 4 mM L-glutamine, and 1% penicillin/streptomycin. As the oxidation of spermine by various polyamine oxidases has been documented in cell culture containing ruminant serum, such as in fetal bovine serum (FBS) and horse serum, human AB serum was used to prevent assay interference. The cells were maintained in 5% CO2 humidified atmosphere at 37 °C. Cell media was replaced every 2 days and the cells were discarded after a maximum of 15 passages.
(§2) The SH-SY5Y neuroblastoma cells were plated in 96-well plates at a density of 30,000 cells/well and allowed to reach 80% confluence, followed by treatment with varying concentrations of inhibitor ranging from 0 to 10 mM for 12 h. Cell viability was assessed by standard MTS assay, in which MTS reagent was added to each well at a concentration of 0.33 mg/mL and incubated at 37 °C for 3 h. Viability was monitored and confirmed by a visual inspection of the cells. Absorbance was read at 490 nm and the absorbance values were normalized to background wells containing varying concentrations of inhibitor, cell media, and MTS reagent. Colorimetric readout was obtained using a SpectraMax M5 plate reader (Molecular Devices) equipped with SOFTmax PRO 7.0.3 software.

[2] = Cytotoxicity analysis, MTS assay; format: cell-based; conditions: human, SH-SY5Y neuroblastoma cells, MTS, 12 h post treatment, read-out: LC50 (dose corresponding to 50% viability)
Method: as §1, §2

[3] = system: SH-SY5Y neuroblastoma cells; assay: Cell viability following excitotoxic stress (glutamate), MTS assay; format: cell-based, human; conditions: 80 mM glutamate
Method: as §1
The SH-SY5Y neuroblastoma cells were plated at a density of 1 × 10^6 cells/mL in 96-well plates (Costar #9018; clear flat bottom) and allowed to adhere overnight. Media was aspirated and the cells were then treated with low-serum culture media (containing 5% human AB serum), 80 mM of glutamate, and varying concentrations of compound. The glutamate and test compounds were added simultaneously with no pre-incubation period. Cell viability was measured at 16 h and 24 h post-treatment by a standard MTS assay (0.33 mg/mL incubated at 37 °C for 3 h). Absorbance was read at 490 nm following 3-h incubation with MTS reagent. […]

SMOX = molecular target: T1, SMOX (Homo sapiens, UniProt Q9NWM0); assay: Mechanism of inhibition and enzyme kinetics (Lineweaver–Burk, global fit); format: biochemical
T1 construct: using 0.3 µg/mL of purified SMOX enzyme and 2 mM of spermine substrate
Method: The mechanism of enzyme inhibition was determined using the HRP-luminol coupled enzyme assay described above. Reaction velocity (max RLU/sec over 10 min) was measured across multiple substrate and inhibitor concentrations, and individual triplicate values were plotted using a Lineweaver–Burk transformation (double-reciprocal) in GraphPad Prism 9.3 software (Graph-Pad, San Diego, CA, USA).

SH-SY5Y cells = assay: ROS production following acute excitotoxic stress, CM-H2DCFDA; format: cell-based, human; conditions: 8 mM glutamate, 1 h, p < 0.0001
Method: To measure intracellular ROS production following acute excitotoxic stress, a CM-H2DCFDA (Invitrogen) probe was used. The SH-SY5Y cells were incubated in the presence of dichlorodihydrofluorescein diacetate (CM-H2DCFDA, Invitrogen), 20 µM in HBSS, at 37 °C for 30 min. The cells were then pelleted and washed with HBSS buffer (without phenol red, magnesium, or calcium). Phosphate buffer was not used to prevent the formation of polyamine–phosphate complexes. The cells were then resuspended in 96-well plates (Greiner #655086; black walled, cleat flat bottom) at a concentration of 1 × 10^6 cells/mL in HBSS containing 0–100 µM of inhibitor and 8 mM of glutamate. Dichlorodihydrofluorescein (DCF) fluorescence was monitored over 1 h (ex 488 nm, em 530 nm). The increase in fluorescence was reported as the % activity of control wells in the absence of the inhibitor. Fluorescent readout was obtained using a SpectraMax M5 plate reader (Molecular Devices) equipped with SOFTmax PRO 7.0.3 software. All test compounds were assessed for fluorescent activity at 530 nm prior to experimentation. The statistical analysis was conducted in GraphPad Prism 9.3 software (Graph-Pad, San Diego, California) using a one-way ANOVA with multiple comparisons (α = 0.05).

LSD1 = molecular target: T2, LSD1 (Homo sapiens, UniProt O60341); assay: LSD1 selectivity assay (Cayman kit, resorufin fluorescence); format: biochemical; conditions: read-out: % Inhibition at 20 μM ± SD, LSD1
T2 construct: purchased Cayman Chemical #700120

T1 sequence (Q9NWM0 whole entry): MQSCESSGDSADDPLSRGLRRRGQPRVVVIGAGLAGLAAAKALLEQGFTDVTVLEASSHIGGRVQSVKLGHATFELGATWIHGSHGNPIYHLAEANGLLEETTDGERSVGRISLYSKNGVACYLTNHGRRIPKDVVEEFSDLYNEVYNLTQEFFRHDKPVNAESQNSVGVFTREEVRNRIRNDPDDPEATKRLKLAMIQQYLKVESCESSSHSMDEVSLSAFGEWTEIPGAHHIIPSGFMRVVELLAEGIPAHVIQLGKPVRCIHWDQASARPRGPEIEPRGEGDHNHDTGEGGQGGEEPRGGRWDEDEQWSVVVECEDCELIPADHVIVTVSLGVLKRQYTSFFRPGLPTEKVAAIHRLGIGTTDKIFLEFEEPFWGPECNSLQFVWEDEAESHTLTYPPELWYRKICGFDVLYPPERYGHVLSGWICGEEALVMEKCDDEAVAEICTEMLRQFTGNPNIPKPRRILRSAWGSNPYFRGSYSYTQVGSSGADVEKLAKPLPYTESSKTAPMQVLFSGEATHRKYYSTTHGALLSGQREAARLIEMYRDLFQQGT

SMILES: Cc1cc([C@H](O)CNCCCNC(=N)N)cc(C)c1O [Compound 6]
- Toxicity after 12-h exposure [1]: did not produce significant toxicity
- CC50 at 12 h [2]: 5800 µM
- Cell viability vs vehicle control and MDL 72527 ([3]; 24 h, 1 mM compound, p = 0.0001 vs vehicle, p = 0.0003 vs MDL 72527): significantly increased cell viability
- viability at 100 µM ([3]; Homo sapiens, SH-SY5Y, 16 h, 100 µM compound, vehicle 26.5%, not statistically significant): 48.3%
- Mechanism of inhibition (SMOX; Lineweaver–Burk analysis): competitive
- Ki (SMOX; global fit for competitive inhibition, inhibitor 0, 0.1, 1 µM): 1.6 µM
- Production of ROS vs vehicle control (SH-SY5Y cells; 10 µM compound): significantly decreased the production of ROS
- Production of ROS vs vehicle control (SH-SY5Y cells; 50 µM compound, p = 0.0004 vs 10 µM): significantly decreased the production of ROS
- inhibition at 20 µM (LSD1): -24.2 ± 4.5%
